From US6060462A, “Electrophilic peptide analogs as inhibitors of trypsin-like enzymes” (DuPont Pharmaceuticals Company, priority 1997, dated 2000)
Structures can show the parent of a compound that is named as a salt. Where two headings read alike, the source gives them in different places.

What was measured:
thrombin = conditions: literature value; cited from earlier work
human thrombin [1] = biological target: T1, human thrombin (Homo sapiens, UniProt P00734); conditions: literature value; cited from earlier work
human factor Xa = biological target: T2, human factor Xa (Homo sapiens, UniProt P00742); assay: Inhibition of Factor Xa hydrolysis of chromogenic substrate S2222 (Ki); assay type: biochemical; conditions: purified human factor Xa, 0.10 M sodium phosphate buffer, pH 7.5, read-out: Ki values for inhibition of Serine Proteases: Factor Xa
T2 construct: 0.2-0.5 nM human thrombin or human factor Xa; purchased Enzyme Research Laboratories, South Bend, Ind
In short: (§1)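 Purified human proteases hydrolysed chromogenic substrates (thrombin S2238, Xa S2222, VIIa S2288), followed at 405 nm. Thrombin/Xa buffer: 0.10 M sodium phosphate pH 7.5, 0.20 M NaCl, 0.5% PEG 8000; VIIa: 0.05 M Tris pH 7.6, 0.10 M NaCl, 4 mM CaCl2, 0.1% BSA. Ki from velocities at 25–30 min.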

human factor VIIa = biological target: T3, human factor VIIa (Homo sapiens, UniProt P08709); assay: Inhibition of Factor VIIa hydrolysis of chromogenic substrate S2288 (Ki); assay type: biochemical; conditions: purified human factor VIIa, 0.05 M tris buffer, pH 7.6, read-out: Ki values for inhibition of Serine Proteases: Factor VIIa
T3 construct: 50 nM human factor VIIa (BiosPacific, Emeryville, Calif.); purchased BiosPacific, Emeryville, Calif
T3 sequence (P08709 213-466 limits assumed): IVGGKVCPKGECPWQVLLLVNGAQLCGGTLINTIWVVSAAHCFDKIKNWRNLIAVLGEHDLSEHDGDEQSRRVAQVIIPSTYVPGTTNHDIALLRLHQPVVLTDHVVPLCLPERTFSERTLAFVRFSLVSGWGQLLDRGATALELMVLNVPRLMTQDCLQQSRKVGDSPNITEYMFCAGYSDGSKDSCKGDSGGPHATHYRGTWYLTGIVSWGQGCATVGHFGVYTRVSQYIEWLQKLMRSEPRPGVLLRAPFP
T3 sequence (P08709 61-212 partner limits assumed): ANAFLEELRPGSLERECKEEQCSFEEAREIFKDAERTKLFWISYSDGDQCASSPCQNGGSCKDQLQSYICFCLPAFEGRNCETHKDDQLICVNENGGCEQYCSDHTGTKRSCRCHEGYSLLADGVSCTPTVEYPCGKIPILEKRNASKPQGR
In short: as §1

human thrombin [2] = biological target: T1, human thrombin; assay: Inhibition of thrombin hydrolysis of chromogenic substrate S2238 (Ki); assay type: biochemical; set-up: 0.2-0.5 nM human thrombin or human factor Xa; purchased Enzyme Research Laboratories, South Bend, Ind; conditions: purified human thrombin, 0.10 M sodium phosphate buffer, pH 7.5, read-out: Ki values for inhibition of Serine Proteases: Trombin
In short: as §1

Thrombin time = Thrombin time (IC50), Table 80

T2 sequence (P00742 235-488 limits assumed): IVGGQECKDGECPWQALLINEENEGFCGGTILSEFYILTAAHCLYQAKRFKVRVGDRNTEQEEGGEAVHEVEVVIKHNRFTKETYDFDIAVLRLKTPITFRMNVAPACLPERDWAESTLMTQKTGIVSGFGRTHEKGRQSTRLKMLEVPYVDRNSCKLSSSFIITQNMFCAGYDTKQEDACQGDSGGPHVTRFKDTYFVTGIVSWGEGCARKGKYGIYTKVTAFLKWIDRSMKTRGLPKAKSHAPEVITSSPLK
T2 sequence (P00742 41-179 partner limits assumed): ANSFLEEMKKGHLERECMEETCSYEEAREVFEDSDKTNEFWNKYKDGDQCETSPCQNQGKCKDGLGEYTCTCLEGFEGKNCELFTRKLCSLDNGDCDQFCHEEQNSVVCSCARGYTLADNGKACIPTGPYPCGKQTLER

Compound	Ki (human factor Xa) [nM]	Ki (human factor VIIa) [nM]	Ki (human thrombin [2]) [nM]	IC50 (Thrombin time) [nM]	Ki (thrombin) [nM]	Ki (human thrombin [1]) [nM]
N#CC(CCCNC(=N)N)NC(=O)[C@@H]1CCCN1C(=O)[C@H](N)Cc1ccccc1 (stereo partly drawn) [D-phenylalanyl-prolyl-NHCH((CH2)3 NHC(=NH)NH2)--CN]	–	–	–	–	700	–
N=C(N)NCCC[C@@H](C=O)NC(=O)[C@@H]1CCCN1C(=O)[C@H](N)Cc1ccccc1 [D-phenylalanyl-prolyl-arginal]	–	–	–	–	–	75
CC1(C)C2CC3OB(C(CCCCN)NC(=O)CN(C(=O)CCc4ccccc4)C4CC4)OC3(C)C1C2 (centres unmarked) [Example 54.4.2, Hydrocinnamoyl-[N-(Cyclopropyl)-Gly]-boroLys-C10H16 HCl]	< 50000	< 500	< 500	< 500	–	–
CC1(C)C2CC3OB(C(CCCCN)NC(=O)CN(C(=O)CCc4ccccc4)C4CCCCC4)OC3(C)C1C2 (centres unmarked) [Example 54.4.3, Hydrocinnamoyl-[N-(Cyclohexyl)-Gly]-boroLys-C10H16 HCl]	< 50000	< 500	< 500	< 50000	–	–
COC(=O)CCC(=O)N(CCc1ccccc1)CC(=O)NC(CCCCN)B(O)O (centres unmarked) [Example 68.3.3, Methyl Succinyl-[N-(Phenethyl)-Gly]-boroLys--OH HCl]	< 50000	< 50000	< 500	< 50000	–	–
Hydrocinnamoyl-Sar-Lys[CH(OH)(OCH3)--C(=O)--OCH3] HCl [Example 61.4.1]	< 50000	< 50000	< 500	< 50000	–	–

Now from value to compound, other results behind:

Ki (human factor Xa) [nM]	Ki (human factor VIIa) [nM]	Ki (human thrombin [2]) [nM]	IC50 (Thrombin time) [nM]	Compound	Ki (thrombin) [nM]	Ki (human thrombin [1]) [nM]
< 500	< 500	< 500	< 500	NCCCCC(NC(=O)CN(CCc1ccccc1C1CC1)C(=O)CCc1ccccc1)B(O)O (centres unmarked) [Example 53.1.2, Hydrocinnamoyl-[N-(2-(Cyclopropyl)-Phenethyl)-Gly]-boroLys--OH HCl]	–	–
< 50000	< 500	< 500	< 500	CC1(C)C2CC3OB(C(CCCCN)NC(=O)CN(CCc4ccccc4C4CC4)C(=O)CCc4ccccc4)OC3(C)C1C2 (centres unmarked) [Example 54.1.2, Hydrocinnamoyl-[N-(2-(Cyclopropyl)-Phenethyl)-Gly]-boroLys-C10H16 HCl]	–	–
< 500	< 50000	< 500	< 50000	CN(CC(=O)NC(CCCCN)B1OC2CC3CC(C3(C)C)C2(C)O1)C(=O)c1ccccc1Sc1ccccc1C#N (centres unmarked) [Example 62.4.3, (2-(2-Cyano)-Thiophenyl)-Benzoyl-Sar-boroLys-C10H16 HCl]	–	–
< 500	< 50000	< 500	< 50000	NCCCCC(NC(=O)CN(CCc1ccccc1)C(=O)CCCC(=O)O)B(O)O (centres unmarked) [Example 66.1.1, Glutaryl-[N-(Phenethyl)-Gly]-boroLys--OH HCl]	–	–
< 500	< 50000	< 500	< 50000	COC(=O)CCCC(=O)N(CCc1ccccc1)CC(=O)NC(CCCCN)B(O)O (centres unmarked) [Example 68.4.1, Methyl Glutaryl-[N-(Phenethyl)-Gly]-boroLys--OH HCl]	–	–
< 500	< 50000	< 500	< 50000	CC1(C)C2CC3OB(C(CCCCN)NC(=O)CN(CCc4ccccc4)C(=O)CCCC(=O)O)OC3(C)C1C2 (centres unmarked) [Example 69.1.1, Glutaryl-[N-(Phenethyl)-Gly]-boroLys-C10H16]	–	–
< 500	< 500	< 500	< 500	CC1(C)C2CC3OB(C(CCCCN)NC(=O)CN(CCc4ccccc4)C(=O)CNS(C)(=O)=O)OC3(C)C1C2 (centres unmarked) [Example 69.3.2, Methanesulfonyl-Gly-[N-(Phenethyl)-Gly]-boroLys-C10H16 HCl]	–	–
< 500	< 500	< 500	< 500	Methanesulfonyl-Gly-[N-(N-(Methyl)-Benzyl)-Gly]-boroLys--OH HCl [Example 66.3.2]	–	–
